Data from patent US10975037B2 (priority 2018, dated 2021).
Counter-ions that a name gives are not always drawn. Like-named read-outs stand apart in the source and are kept apart here. Marks after values point to notes of the source that are not given here.

Legend:
[1] = biological target: full-length human RORγt (Homo sapiens (Human), UniProt P51449); assay: RORγt (full-length human) reporter assay, conditions A or B, HEK293T cells; assay type: cell-based; conditions: for inhibition at 0.67 µM / inhibition at […] / inhibition at 6 µM / inhibition at 3 µM / inhibition at 1 µM / inhibition at 2 µM: HEK-293T; for inhibition at 0.67 µM / inhibition at […] / inhibition at 3 µM / inhibition at 1 µM / inhibition at 2 µM: read-out: RORγt (FL) Reporter Assay A or B, % inhibition; for inhibition at 6 µM: read-out: RORγt (FL) Reporter Assay A or B, % inhibition @ 6 μM, 6 μM compound concentration; for inhibition at 1 µM: 1 μM compound concentration (footnote ***); for inhibition at 2 µM: 2 μM compound concentration
Sequence of full-length human RORγt (P51449 other isoform, or with tags, fused parts or gaps): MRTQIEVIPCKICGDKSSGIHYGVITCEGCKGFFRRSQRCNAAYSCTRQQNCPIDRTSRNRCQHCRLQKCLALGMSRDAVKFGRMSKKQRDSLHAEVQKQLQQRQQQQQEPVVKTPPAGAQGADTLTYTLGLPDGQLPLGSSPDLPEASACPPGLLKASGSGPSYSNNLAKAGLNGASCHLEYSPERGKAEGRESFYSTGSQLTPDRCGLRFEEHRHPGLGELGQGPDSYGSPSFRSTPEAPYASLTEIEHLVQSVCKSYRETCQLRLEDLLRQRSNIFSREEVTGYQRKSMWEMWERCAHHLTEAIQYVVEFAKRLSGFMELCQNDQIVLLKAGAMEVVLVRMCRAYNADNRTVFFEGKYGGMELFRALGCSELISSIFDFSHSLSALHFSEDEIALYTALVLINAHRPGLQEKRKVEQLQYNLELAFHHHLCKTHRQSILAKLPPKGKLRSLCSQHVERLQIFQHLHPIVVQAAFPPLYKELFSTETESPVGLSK
Procedure, shortened: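 Dual-luciferase read-out was taken after an overnight (16–20 h) compound exposure. Firefly data were scaled between DMSO-only and saturating reference compound, Renilla-normalized, then plotted against concentration for IC50.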

[2] = biological target: human RORγt ligand binding domain (RORγt LBD) (Homo sapiens (Human), UniProt P51449); assay: RORγt ThermoFluor® assay (thermal shift binding)
Sequence of human RORγt ligand binding domain (RORγt LBD) (P51449 other isoform, or with tags, fused parts or gaps): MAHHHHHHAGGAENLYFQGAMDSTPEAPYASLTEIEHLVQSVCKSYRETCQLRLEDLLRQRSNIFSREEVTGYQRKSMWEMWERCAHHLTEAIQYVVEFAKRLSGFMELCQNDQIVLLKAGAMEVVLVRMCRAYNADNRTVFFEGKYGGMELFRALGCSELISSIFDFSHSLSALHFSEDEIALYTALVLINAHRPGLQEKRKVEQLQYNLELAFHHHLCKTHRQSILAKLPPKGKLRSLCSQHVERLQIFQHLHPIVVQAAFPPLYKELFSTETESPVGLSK
Procedure, shortened: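 Thermal shift with 0.065 mg/mL RORγt LBD and 60 μM 1,8-ANS in 100 mM Hepes pH 7.0, 10 mM NaCl, 2.5 mM GSH, 0.002% Tween-20.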

[3] = RORγt (FL) Reporter Assay A or B, IC50, HEK293T cells
[4] = read-out: ThermoFluor® Assay, Kd
[5] = 0.22 μM compound concentration (footnote *******)
[6] = 3 μM compound concentration (footnote *)
[7] = 0.33 μM compound concentration (footnote *****)

Row | Structure (SMILES) | IC50 [1, 3] [nM] | Kd [2, 4] [nM] | Kd ([2]; ThermoFluor® Assay, Kd) [nM] | also measured
1 | Cn1nc(C(=O)NC[C@]2(O)CC[C@@H](S(C)(=O)=O)CC2)c(Cl)c1-c1ccc(CC(C)(C)C(F)(F)F)cc1OC(F)F [Example 154, 4-Chloro-5-(2-(difluoromethoxy)-4-(3,3,3-trifluoro-2,2-dimethylpropyl)phenyl)-N-(((1s,4s)-1-hydroxy-4-(methylsulfonyl)cyclohexyl)methyl)-1-methyl-1H-pyrazole-3-carboxamide] | 4.5 | 0.79 |  | inhibition at 0.67 µM ([1]; 0.67 μM compound concentration (footnote ****)): 91%
2 | CCn1nc(C(=O)NC[C@]2(C#N)CC[C@@H](S(C)(=O)=O)CC2)c(Cl)c1-c1ccc(CC(C)(C)C(F)(F)F)cc1OC(F)F [Example 134, 4-Chloro-N-(((1s*,4s*)-1-cyano-4-(methylsulfonyl)cyclohexyl)methyl)-5-(2-(difluoromethoxy)-4-(3,3,3-trifluoro-2,2-dimethylpropyl)phenyl)-1-ethyl-1H-pyrazole-3-carboxamide] | 1.3 | 0.2 |  | inhibition at […] [1, 5]: 102%
3 | CCn1nc(C(=O)NC[C@H]2CC[C@H](S(C)(=O)=O)CC2)c(Cl)c1-c1ccc(CC(C)(C)C(F)(F)F)cc1 [Example 168, 4-Chloro-1-ethyl-N-(((1r,4r)-4-(methylsulfonyl)cyclohexyl)methyl)-5-(4-(3,3,3-trifluoro-2,2-dimethylpropyl)phenyl)-1H-pyrazole-3-carboxamide] | 18 | 4 |  | inhibition at […] [1, 5]: 71%
4 | CC(C)(O)Cn1nc(C(=O)NC[C@]2(O)CC[C@@H](S(C)(=O)=O)CC2)c(Cl)c1-c1ccc(CC(C)(C)C(F)(F)F)cc1OC(F)F [Example 144, 4-Chloro-5-(2-(difluoromethoxy)-4-(3,3,3-trifluoro-2,2-dimethylpropyl)phenyl)-1-(2-hydroxy-2-methylpropyl)-N-(((1s,4s)-1-hydroxy-4-(methylsulfonyl)cyclohexyl)methyl)-1H-pyrazole-3-carboxamide] | 31 | 11 |  | inhibition at 6 µM [1]: 112%
5 | CCn1nc(C(=O)NC[C@H]2CC[C@@H](S(C)(=O)=O)CN2)c(Cl)c1-c1ccc(CC(C)(C)C(F)(F)F)cc1OC(F)F (stereo in doubt) [Example 11, 4-Chloro-5-(2-(difluoromethoxy)-4-(3,3,3-trifluoro-2,2-dimethylpropyl)phenyl)-1-ethyl-N-(((2RS,5RS)-5-(methylsulfonyl)piperidin-2-yl)methyl)-1H-pyrazole-3-carboxamide Hydrobromide] | 190 |  | 35 | inhibition at 3 µM [1, 6]: 100%
6 | CCC(=O)NS(=O)(=O)[C@H]1CC[C@H](CNC(=O)c2nn(CC)c(-c3ccc(CC(C)(C)C(F)(F)F)cc3OC(F)F)c2Cl)CC1 [Example 70, 4-Chloro-5-(2-(difluoromethoxy)-4-(3,3,3-trifluoro-2,2-dimethylpropyl)phenyl)-1-ethyl-N-(((r,4r)-4-(N-propionylsulfamoyl)cyclohexyl)methyl)-1H-pyrazole-3-carboxamide] |  | 0.72 |  | RORγt (FL) Reporter Assay A or B, % inhibition [1, 6]: 103* %; IC50 ([1]; HEK293T cells, read-out: RORγt (FL) Reporter Assay A or B, IC50): 23 nM
7 | CCn1nc(C(=O)NC[C@H]2CC[C@H](S(C)(=O)=O)C[C@@H]2O)c(Cl)c1-c1ccc(CC(C)(C)C(F)(F)F)cc1OC(F)F (single isomer, unassigned) [Example 21, 4-Chloro-5-(2-(difluoromethoxy)-4-(3,3,3-trifluoro-2,2-dimethylpropyl)phenyl)-1-ethyl-N-(((1R*,2S*,4S*)-2-hydroxy-4-(methylsulfonyl)cyclohexyl)methyl)-H-pyrazole-3-carboxamide] | 3.6 |  | 0.37 | inhibition at […] [1, 7]: 103%
8 | CCn1nc(C(=O)NC[C@H]2CC[C@H](S(C)(=O)=O)CC2)c(Cl)c1-c1ccc(C2(O)CCC(C(F)(F)F)CC2)cc1OC(F)F (single isomer, unassigned) [Example 114, 4-Chloro-5-(2-(difluoromethoxy)-4-((1s*,4s*)-1-hydroxy-4-(trifluoromethyl)cyclohexyl)phenyl)-1-ethyl-N-(((1r,4r)-4-(methylsulfonyl)cyclohexyl)methyl)-1H-pyrazole-3-carboxamide] | 410 |  | 980 | inhibition at 1 µM [1]: 82%
9 | CCn1nc(C(=O)NC[C@]2(O)CC[C@@H](S(C)(=O)=O)CC2)c(Cl)c1-c1ccc(C2(O)CCC(C(F)(F)F)CC2)cc1OC(F)F (single isomer, unassigned) [Example 112, 4-Chloro-5-(2-(difluoromethoxy)-4-((1s*,4s*)-1-hydroxy-4-(trifluoromethyl)cyclohexyl)phenyl)-1-ethyl-N-(((1s,4s)-1-hydroxy-4-(methylsulfonyl)cyclohexyl)methyl)-1H-pyrazole-3-carboxamide] | > 1000 |  | 3000 | inhibition at 1 µM [1]: 44%
10 | CCn1nc(C(=O)NC[C@]2(O)CC[C@@H](S(C)(=O)=O)CC2)c(Cl)c1-c1ccc(CCCC(F)(F)F)cc1OC [Example 81, 4-Chloro-1-ethyl-N-(((1s,4s)-1-hydroxy-4-(methylsulfonyl)cyclohexyl)methyl)-5-(2-methoxy-4-(4,4,4-trifluorobutyl)phenyl)-1H-pyrazole-3-carboxamide] | 13 | 5.1 |  | inhibition at 2 µM [1]: 89%
11 | CCn1nc(C(=O)NC[C@H]2CC[C@H](S(C)(=O)=O)CC2)c(Cl)c1-c1ccc(CCC(F)(F)F)cc1OC [Example 38, 4-Chloro-1-ethyl-5-(2-methoxy-4-(3,3,3-trifluoropropyl)phenyl)-N-(((1r,4r)-4-(methylsulfonyl)cyclohexyl)methyl)-1H-pyrazole-3-carboxamide] | 12 | 3.3 |  | inhibition at 0.67 µM [1]: 84%
12 | CCn1nc(C(=O)NC[C@H]2CC[C@H](S(C)(=O)=O)CC2)c(Cl)c1-c1c(F)cc(N[C@H](C)C(F)(F)F)cc1F [Example 196, 4-Chloro-5-(2,6-difluoro-4-(((R)-1,1,1-trifluoropropan-2-yl)amino)phenyl)-1-ethyl-N-(((1r,4R)-4-(methylsulfonyl)cyclohexyl)methyl)-1H-pyrazole-3-carboxamide] | 20 | 5.4 |  | inhibition at 2 µM [1]: 101%
13 | CCn1nc(C(=O)NC[C@H]2CC[C@H](S(N)(=O)=O)CC2)c(Cl)c1-c1ccc(C[C@H](C)C(F)(F)F)cc1OC(F)F (single isomer, unassigned) [Example 54, 4-Chloro-5-(2-(difluoromethoxy)-4-((S*)-3,3,3-trifluoro-2-methylpropyl)phenyl)-1-ethyl-N-(((1r,4S)-4-sulfamoylcyclohexyl)methyl)-1H-pyrazole-3-carboxamide] | 9.8 |  | 0.69 | inhibition at […] [1, 7]: 102%
14 | CCn1nc(C(=O)NC[C@]2(O)CC[C@@H](S(C)(=O)=O)CC2)c(C#N)c1-c1ccc(CC(C)C(F)(F)F)cc1OC (stereo partly drawn) [Example 122, 4-Cyano-1-ethyl-N-(((1s,4s)-1-hydroxy-4-(methylsulfonyl)cyclohexyl)methyl)-5-(2-methoxy-4-(3,3,3-trifluoro-2-methylpropyl)phenyl)-1H-pyrazole-3-carboxamide] | 150 | 27 |  | inhibition at 6 µM [1]: 104%
15 | CCn1nc(C(=O)NC[C@]2(O)CC[C@@H](S(C)(=O)=O)CC2)c(Cl)c1-c1ccc(CCC(F)(F)F)cc1Cl [Example 173, 4-Chloro-5-(2-chloro-4-(3,3,3-trifluoropropyl)phenyl)-1-ethyl-N-(((1s,4s)-1-hydroxy-4-(methylsulfonyl)cyclohexyl)methyl)-1H-pyrazole-3-carboxamide] | 28 | 12 |  | inhibition at 0.67 µM [1]: 36%
16 | CCn1nc(C(=O)NC[C@H]2CC[C@H](S(N)(=O)=O)CC2)c(C)c1-c1ccc(C[C@H](C)C(F)(F)F)cc1OC(F)F (single isomer, unassigned) [Example 59, 5-(2-(difluoromethoxy)-4-((S*)-3,3,3-trifluoro-2-methylpropyl)phenyl)-1-ethyl-4-methyl-N-(((1r,4S)-4-sulfamoylcyclohexyl)methyl)-1H-pyrazole-3-carboxamide] | 19 |  | 1.2 | inhibition at […] [1, 7]: 93%
17 | CCn1nc(C(=O)NC[C@]2(C(N)=O)CC[C@@H](S(C)(=O)=O)CC2)c(Cl)c1-c1ccc(N[C@H](C)C(F)(F)F)cc1OC [Example 35, N-(((1s,4S)-1-carbamoyl-4-(methylsulfonyl)cyclohexyl)methyl)-4-chloro-1-ethyl-5-(2-methoxy-4-(((R)-1,1,1-trifluoropropan-2-yl)amino)phenyl)-1H-pyrazole-3-carboxamide] | 730 | 34 |  | inhibition at 6 µM [1]: 102%
18 | CCn1nc(C(=O)NC[C@]2(O)CC[C@@H](S(C)(=O)=O)CC2)c(Cl)c1-c1ccc([C@](C)(O)CC(F)(F)F)cc1OC(F)F (single isomer, unassigned) [Example 100, 4-Chloro-5-(2-(difluoromethoxy)-4-((R*)-4,4,4-trifluoro-2-hydroxybutan-2-yl)phenyl)-1-ethyl-N-(((1s,4S)-1-hydroxy-4-(methylsulfonyl)cyclohexyl)methyl)-1H-pyrazole-3-carboxamide] | 220 |  | 69 | inhibition at 3 µM [1, 6]: 49%
